Assays:
[1] = system: MCF-7 breast cancer cells; test: Growth inhibition, 3 h treatment; format: cell-based, human; conditions: MCF-7, 3 h treatment followed by 3 – 4 days of growth; outside the concentration range; average of at least six measurements
[2] = physiological conditions, 37 °C and pH 7; cited from earlier work

SMILES | IC50 [1] [log M] | half-life of hydrolysis to dox [2]
COc1cccc2c1C(=O)c1c(O)c3c(c(O)c1C2=O)C[C@@](O)(C(=O)CO)C[C@@H]3O[C@H]1C[C@H](NC(=O)OCc2ccc(NC(=O)[C@H](CCCCN)NC(=O)[C@H](Cc3ccccc3)NC(=O)[C@@H](C)N)cc2)[C@H](O)[C@H](C)O1.O=P(O)(O)O [aFK-Dox, N-(N-(D-alanyl-L-phenylalanyl-L-lysyl)-p-aminobenzyloxycarbonyl)-doxorubicin] | > −6 | 
COc1cccc2c1C(=O)c1c(O)c3c(c(O)c1C2=O)C[C@@](O)(C(=O)CO)C[C@@H]3O[C@H]1C[C@@H]2NCO[C@@H]2[C@H](C)O1 [doxaz, doxazolidine] |  | approximately 3 min
